Results reported in patent US20220380320A1 (priority 2019, published 2022).

Assays:
in vitro = settings: African green monkey
MERS-CoV = test: microbe, parasite or virus in culture; assay type: cell-based; settings: for EC50: Middle East respiratory syndrome-related coronavirus, Vero, 24 h

Structure (SMILES) | CC50 (in vitro) | SI (MERS-CoV) | EC50 (MERS-CoV) | toxicity to host cells (vero cells (ATCC CCL-81))
Cc1cccc(C)c1OCC(=O)N[C@@H](Cc1ccccc1)[C@@H](O)C[C@H](Cc1ccccc1)NC(=O)[C@H](Cc1ccccc1)N1CCCNC1=O [Compound 1, (S)-N-((2S,4S,5S)-5-(2-(2,6-dimethylphenoxy)acetamido)-4-hydroxy-1,6-diphenylhexane-2-yl)-2-(2-oxotetrahydropyrimidin-1(2H)-yl)-3-phenylpropanamide] | > 50 µM | 21.74 | 2.03 µM | minimal toxicity
Cc1cccc(C)c1OCC(=O)N[C@@H](Cc1ccccc1)[C@@H](O)C[C@H](Cc1ccccc1)NC(=O)[C@](C)(C(C)C)N1CCCNC1=O [Compound 2, (S)-N-((2S,4S,5S)-5-(2-(2,6-dimethylphenoxy)acetamido)-4-hydroxy-1,6-diphenylhexane-2-yl)-2,3-dimethyl-2-(2-oxotetrahydropyrimidin-1(2H)-yl)butanamide] | > 50 µM |  |  | minimal toxicity
Cc1cccc(C)c1OCC(=O)N[C@@H](Cc1ccccc1)[C@@H](O)C[C@H](Cc1ccccc1)NC(=O)[C@@](C)(C(C)C)N1CCCNC1=O [Compound 3, (R)-N-((2S,4S,5S)-5-(2-(2,6-dimethylphenoxy)acetamido)-4-hydroxy-1,6-diphenylhexane-2-yl)-2,3-dimethyl-2-(2-oxotetrahydropyrimidin-1(2H)-yl)butanamide] | > 50 µM |  |  | minimal toxicity
Cc1cccc(C)c1OCC(=O)N[C@@H](Cc1ccccc1)[C@@H](O)C[C@H](Cc1ccccc1)NC(=O)C1(N2CCCNC2=O)CCCC1 [Compound 4, N-((2S,4S,5S)-5-(2-(2,6-dimethylphenoxy)acetamido)-4-hydroxy-1,6-diphenylhexan-2-yl)-1-(2-oxotetrahydropyrimidine-1 (2H)-yl) cyclopentanecarboxamide] | > 50 µM | 6.53 | 7.66 µM | minimal toxicity
Cc1cccc(C[C@@H](C(=O)N[C@@H](Cc2ccccc2)C[C@H](O)[C@H](Cc2ccccc2)NC(=O)COc2c(C)cccc2C)N2CCCNC2=O)c1 [Compound 5, (S)-N-((2S,4S,5S)-5-(2-(2,6-dimethylphenoxy)acetamido)-4-hydroxy-1,6-diphenylhexane-2-yl)-2-(2-oxotetrahydropyrimidin-1(2H)-yl)-3-(m-tolyl)propanamide] | > 50 µM | 17.91 | 2.79 µM | minimal toxicity
Cc1cccc(C)c1OCC(=O)N[C@@H](Cc1ccccc1)[C@@H](O)C[C@H](Cc1ccccc1)NC(=O)[C@H](Cc1ccc(F)cc1)N1CCCNC1=O [Compound 7, (S)-N-((2S,4S,5S)-5-(2-(2,6-dimethylphenoxy)acetamido)-4-hydroxy-1,6-diphenylhexane-2-yl)-3-(4-fluorophenyl)-2-(2-oxotetrahydropyrimidin-1(2H)-yl)propanamide] | > 50 µM | 23.96 | 2.09 µM | minimal toxicity
Cc1cccc(C)c1OCC(=O)N[C@@H](Cc1ccccc1)[C@@H](O)C[C@H](Cc1ccccc1)NC(=O)[C@H](Cc1ccc(C(F)(F)F)cc1)N1CCCNC1=O [Compound 8, (S)-N-((2S,4S,5S)-5-(2-(2,6-dimethylphenoxy)acetamido)-4-hydroxy-1,6-diphenylhexane-2-yl)-2-(2-oxotetrahydropyrimidin-1(2H)-yl)-3-(4-(trifluoromethyl)phenyl)propanamide] | > 50 µM | 40.88 | 1.22 µM | minimal toxicity
Cc1cccc(C)c1OCC(=O)N[C@@H](Cc1ccccc1)[C@@H](O)C[C@H](Cc1ccccc1)NC(=O)[C@H](Cc1ccc(C#N)cc1)N1CCCNC1=O [Compound 9, (S)-3-(4-cyanophenyl)-N-((2S,4S,5S)-5-(2-(2,6-dimethylphenoxy)acetamido)-4-hydroxy-1,6-diphenylhexan-2-yl)-2-(2-oxotetrahydropyrimidin-1(2H)-yl)propanamide] | > 50 µM | 19.33 | 2.59 µM | minimal toxicity
Cc1cccc(C)c1OCC(=O)N[C@@H](Cc1ccccc1)[C@@H](O)C[C@H](Cc1ccccc1)NC(=O)[C@H](Cc1cccs1)N1CCCNC1=O [Compound 10, (S)-N-((2S,4S,5S)-5-(2-(2,6-dimethylphenoxy)acetamido)-4-hydroxy-1,6-diphenylhexane-2-yl)-2-(2-oxotetrahydropyrimidin-1(2H)-yl)-3-(thiophen-2-yl)propenamide] | > 50 µM | 15.06 | 3.32 µM | minimal toxicity
Cc1cccc(C)c1OCC(=O)N[C@@H](Cc1ccccc1)[C@@H](O)C[C@H](Cc1ccccc1)NC(=O)[C@H](C(C)C)N1CCCNC1=O [Positive control, Lopinavir, reference compound] | > 50 µM | 4.78 | 10.5 µM | 
